Test results reported in the NIST ThermoML archive (doi:10.1021/je400977r).

Assay: mn = molality of the nth substance listed, in mol/kg
Conditions: 101 kPa, Liquid; for speed of sound: Pulse-echo method

OC[C@H]1O[C@H](OC[C@H]2O[C@H](O[C@]3(CO)O[C@H](CO)[C@@H](O)[C@@H]3O)[C@H](O)[C@@H](O)[C@@H]2O)[C@H](O)[C@@H](O)[C@H]1O [D-raffinose] + O
Conditions | mass density, 293.15 K [kg/m3] | mass density, 298.15 K [kg/m3] | mass density, 303.15 K [kg/m3] | mass density, 308.15 K [kg/m3] | mass density, 313.15 K [kg/m3] | speed of sound, 293.15 K [m/s] | speed of sound, 298.15 K [m/s] | speed of sound, 303.15 K [m/s] | speed of sound, 308.15 K [m/s] | speed of sound, 313.15 K [m/s]
m1 = 0.05 | 1007.77 | 1006.5 | 1004.91 | 1003.05 | 1001.02 | 1491.8 | 1505.7 | 1517.8 | 1528.3 | 1537.3
m1 = 0.055 | 1008.68 | 1007.4 | 1005.81 | 1003.92 | 1001.99 | 1492.6 | 1506.5 | 1518.6 | 1529.1 | 1538.1
m1 = 0.06 | 1009.59 | 1008.29 | 1006.72 | 1004.79 | 1002.85 | 1493.5 | 1507.3 | 1519.4 | 1529.8 | 1538.8
m1 = 0.065 | 1010.49 | 1009.18 | 1007.61 | 1005.69 | 1003.72 | 1494.3 | 1508.2 | 1520.2 | 1530.6 | 1539.6
m1 = 0.07 | 1011.48 | 1010.16 | 1008.56 | 1006.61 | 1004.62 | 1495.1 | 1509 | 1521 | 1531.4 | 1540.4
m1 = 0.075 | 1012.36 | 1011.1 | 1009.46 | 1007.55 | 1005.58 | 1496 | 1509.8 | 1521.8 | 1532.1 | 1541.1
m1 = 0.08 | 1013.3 | 1011.98 | 1010.34 | 1008.42 | 1006.46 | 1496.8 | 1510.6 | 1522.6 | 1532.9 | 1541.9
m1 = 0.085 | 1014.21 | 1012.93 | 1011.23 | 1009.29 | 1007.35 | 1497.7 | 1511.4 | 1523.4 | 1533.7 | 1542.7
m1 = 0.09 | 1015.18 | 1013.88 | 1012.18 | 1010.25 | 1008.33 | 1498.5 | 1512.2 | 1524.2 | 1534.4 | 1543.4
m1 = 0.1 | 1016.99 | 1015.7 | 1014.08 | 1011.99 | 1010.23 | 1500.1 | 1513.9 | 1525.8 | 1536 | 1544.9

O=C[C@H](O)[C@H](O)[C@H](O)CO [D-ribose] + O
Conditions | mass density, 293.15 K [kg/m3] | mass density, 298.15 K [kg/m3] | mass density, 303.15 K [kg/m3] | mass density, 308.15 K [kg/m3] | mass density, 313.15 K [kg/m3] | speed of sound, 293.15 K [m/s] | speed of sound, 298.15 K [m/s] | speed of sound, 303.15 K [m/s] | speed of sound, 308.15 K [m/s] | speed of sound, 313.15 K [m/s]
m1 = 0.05 | 1001.07 | 999.887 | 998.463 | 996.819 | 994.955 | 1485.2 | 1499.2 | 1511.3 | 1521.9 | 1530.9
m1 = 0.055 | 1001.36 | 1000.17 | 998.749 | 997.103 | 995.237 | 1485.4 | 1499.4 | 1511.5 | 1522 | 1531
m1 = 0.06 | 1001.65 | 1000.47 | 999.035 | 997.383 | 995.517 | 1485.6 | 1499.5 | 1511.6 | 1522.2 | 1531.2
m1 = 0.065 | 1001.94 | 1000.75 | 999.317 | 997.667 | 995.796 | 1485.8 | 1499.7 | 1511.8 | 1522.3 | 1531.3
m1 = 0.07 | 1002.23 | 1001.04 | 999.606 | 997.954 | 996.076 | 1485.9 | 1499.8 | 1511.9 | 1522.5 | 1531.4
m1 = 0.075 | 1002.52 | 1001.33 | 999.887 | 998.237 | 996.357 | 1486.1 | 1500 | 1512 | 1522.6 | 1531.6
m1 = 0.08 | 1002.82 | 1001.62 | 1000.17 | 998.519 | 996.637 | 1486.2 | 1500.1 | 1512.2 | 1522.7 | 1531.7
m1 = 0.085 | 1003.11 | 1001.91 | 1000.47 | 998.806 | 996.917 | 1486.4 | 1500.2 | 1512.2 | 1522.8 | 1531.8
m1 = 0.09 | 1003.4 | 1002.21 | 1000.75 | 999.089 | 997.196 | 1486.5 | 1500.3 | 1512.4 | 1523 | 1532
m1 = 0.1 | 1003.98 | 1002.79 | 1001.33 | 999.652 | 997.754 | 1486.8 | 1500.6 | 1512.6 | 1523.2 | 1532.2

CC(C)C[C@H](N)C(=O)O [L-leucine] + O
Conditions | mass density, 293.15 K [kg/m3] | mass density, 298.15 K [kg/m3] | mass density, 303.15 K [kg/m3] | mass density, 308.15 K [kg/m3] | mass density, 313.15 K [kg/m3] | speed of sound, 293.15 K [m/s] | speed of sound, 298.15 K [m/s] | speed of sound, 303.15 K [m/s] | speed of sound, 308.15 K [m/s] | speed of sound, 313.15 K [m/s]
m1 = 0.025 | 998.94 | 997.765 | 996.352 | 994.719 | 992.893 | 1486.2 | 1500.2 | 1512.3 | 1522.8 | 1531.7
m1 = 0.05 | 999.543 | 998.36 | 996.938 | 995.302 | 993.464 | 1489.2 | 1502.9 | 1515 | 1525.4 | 1534.2
m1 = 0.1 | 1000.6 | 999.369 | 997.956 | 996.293 | 994.341 | 1495.2 | 1508.8 | 1520.6 | 1530.8 | 1539.4
